Target: T1, pmCiC (plasma membrane citrate transporter) (Homo sapiens, UniProt P53007)
T1 construct: gene SLC25A1; His-tagged pmCiC expressed in Sf9 cells, solubilized in dodecylmaltoside and purified by Ni-NTA
Test: Trp fluorescence quenching titration of purified protein
Type: binding

T1 sequence (P53007 14-311): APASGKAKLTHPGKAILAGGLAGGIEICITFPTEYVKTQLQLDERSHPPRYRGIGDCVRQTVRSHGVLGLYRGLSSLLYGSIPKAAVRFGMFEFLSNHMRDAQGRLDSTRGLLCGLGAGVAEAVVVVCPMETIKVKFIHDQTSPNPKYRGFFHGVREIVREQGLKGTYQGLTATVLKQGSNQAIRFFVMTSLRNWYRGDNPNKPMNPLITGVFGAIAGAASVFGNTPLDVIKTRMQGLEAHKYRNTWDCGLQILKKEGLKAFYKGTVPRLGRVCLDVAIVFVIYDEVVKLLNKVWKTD

O=C(O)CC(O)(CC(=O)O)C(=O)O [citrate]
Kd: 16 mM
